In patent US20230042176A1, “METHOD FOR TREATING ANGELMAN SYNDROME AND RELATED DISORDERS” (priority 2019, published 2023):
Entries after “also recorded” stand apart in the source; their conditions may differ. Like-named read-outs stand apart in the source and are kept apart here. Peptide text beside a SMILES is read from it. * marks the point of attachment. Cbz = O=C(OCc1ccccc1)*

Tests used:
[1] = system: WT and UBE3A KO human induced neurons; test: Whole cell patch clamp recordings of human induced neurons (fAHP amplitude, AP firing frequency); format: cell-based
[2] = system: neurons of WT and UBE3A KO cortical organoids; test: Whole cell and perforated patch clamp recordings of neurons in human cortical organoids; format: cell-based; conditions: for changes in neuronal excitability, fAHP, and network hyperactivity and synchronization in human cortical organoids from UBE3A knockout stem cells: summary statement
Experimental: Cortical organoids were generated based on a published protocol (Pasca et al., Nat Methods 12, 671-678 (2015)) with minor modifications. hPSCs were dissociated to single cells by TrypLE Express (Thermofisher) and seeded into U-shaped ultra-low attachment 96-well plate (Corning) at a density of 6K cells/well in the presence of thiazovivin (5 μM, Tocris). After spheroid formation, media were completely changed to Neural Induction Media (NIM: DMEM/F12 (Nacalai Tesque), 20% KnockOut Serum Replacement (Thermofisher), 1% minimum essential media-nonessential amino acid (Thermofisher), 1% GlutaMax (Thermofisher), 1% Antibiotic-Antimycotic (Thermofisher), 0.1% β-mercaptoethanol (Thermofisher), 5 μM Dorsomorphin (Tocris), 10 μM SB431542 (Stemgent)) for the next 6 days, with media change every other day. Starting day 7, media were changed to Neural Growth Media (NGM: Neurobasal (Thermofisher), 1:50 B27 without vitamin A (Thermofisher), 1% GlutaMAX (Thermofisher), 1% Antibiotic-Antimycotic (Thermofisher), 20 ng/ml EGF (PeproTech), 20 ng/ml FGF-basic (PeproTech)) for the next 18 days, with media change every other day. Starting day 25, organoids were transferred out of 96-well plates to 6-well plates (6-8 organoids per well), cultured in Organoid Media I (OMI: Neurobasal (Thermofisher), 1:50 B27 without vitamin A (Thermofisher), 1% GlutaMax (Thermofisher), 1% Antibiotic-Antimycotic (Thermofisher), 10 mM HEPES (Thermofisher), 10 ng/ml BDNF (PeproTech), 10 ng/ml NT3 (PeproTech)) until day 100 on an orbital shaker (75 rev/min). After day 100, media were changed to Organoid Media II (OMII: BrainPhys (Stemcell Technologies), 1:50 SM1 (Stemcell Technologies), 1% GlutaMax (Thermofisher), 1% Antibiotic-Antimycotic (Thermofisher), 10 mM HEPES (Thermofisher), 10 ng/ml BDNF (PeproTech), 10 ng/ml GDNF (PeproTech), 10 ng/ml NT3 (PeproTech), 100 μM db-cAMP (Sigma)).
(§1) Whole cell patch clamp recordings of neurons in the organoid (wholemount) and acute mouse hippocampal slices were performed in a recording chamber (RC-26GLP, Warner Instruments) and submerged under continuously perfused artificial CSF (aCSF) containing (in mM): 119 NaCl, 2.5 KCl, 11 glucose, 26 NaHCO3, 1.25 NaH2PO4, 2.5 CaCl2 and 2 MgCl2 saturated with 95% O2 and 5% CO2 at 30-32° C. Neuronal intrinsic excitability was measured in the presence of CNQX (20 μM, Tocris) and APV (50 μM, Tocris) to block all excitatory synaptic responses. We targeted neurons near the surface of organoids with reasonably pyramidal-shaped cell bodies under our DIC/IR camera. […] Signals were recorded using a MultiClamp 700B amplifier, filtered at 2 kHz using a Bessel filter, and digitized at 40 kHz with a Digidata 1550B analog-to-digital (A/D) board (Molecular Devices, Sunnyvale, Calif.). […]

[3] = system: WT and UBE3A KO cortical organoids; test: Two-photon calcium imaging of cortical organoids; format: cell-based, human; conditions: paxilline 10 μM
[4] = system: hippocampal neurons of WT and Ube3a m-/p+ mice; test: Whole cell patch clamp recordings in acute mouse hippocampal slices; format: cell-based; conditions: paxilline, postnatal day 28
Experimental: as §1
For fAHP analysis in all recordings, automatic detection and calculation was conducted by customized matlab scripts adapted from published algorithm (Bean, Nat Rev Neurosci 8, 451-465 (2007); Platkiewicz and Brette, PLoS Comput Biol 6, e1000850 (2010); Yu et al., J Neurosci 28, 7260-7272 (2008)). […] The fAHP amplitude of each neuron was calculated by averaging the fAHP of the first spike in all current injection steps. […]

[5] = system: WT and Ube3a m-/p+ mice; test: Flurothyl-induced seizures; format: in vivo, mouse; conditions: paxilline pre-treatment 0.35 mg/kg i.p.; flurothyl 100 μl/min
Source text: Chamber was cleaned and the tissue paper was replaced before each new trial.

[6] = system: WT and Ube3a m-/p+ mice; format: in vivo, mouse; conditions: for seizure grade based on Racine's scale: no paxilline
Experimental: […]. Seizure severity of mice was dependent on multiple variables such as picrotoxin dose, mice age, and their body weights. […] Videos were recorded for all the behavioural experiments. Behavioral analysis was performed in a double-blind manner with littermates (siblings of wild-type (Ube3a^m+/p+) and maternal knockout (Ube3a^m−/p+) mice that produced from same pairs of Ube3a^m+/p− females and Ube3a^m+/p+ males).

[7] = system: WT and Ube3a m-/p+ mice; test: In vivo local field potential (LFP) recording in freely moving mice; design: species or system mouse; conditions: paxilline 0.35 mg/kg, 4 times with 1-hour interval
Experimental: […]. Eye cream was applied to a mouse to protect the eye from drying due to anaesthesia. 2% lidocaine was injected under the scalp and subsequently scalp was removed to expose the skull. […] Stereotrodes were made with platinum-iridium wire (90%:10%, A-M system) and unilaterally implanted into BIC. Stainless steel screw (AP: 2 mm, Lateral: 2 mm) was used as a reference electrode. Iodopavidone was applied for disinfection around the surgical area after dental cement mounting. Mice were maintained on a heating pad at 37° C. until waking from the anaesthesia before putting back to home cages. LFP recordings were performed on the mice 5 days after surgery. LFP recordings were conducted in a copper-Faraday chamber. For evoked LFP, auditory stimulus (˜125 dB, 500 Hz) was provided by a speaker (EKX, Electro-Voice) driven by a customized program in Matlab. LFP was recorded with sampling rate at 500 Hz and filtered with 0.5 Hz high-pass and 100 Hz low-pass by EEG/EMG recording system (Pinnacle). […] Video was recorded simultaneously for further analysis. After all recordings, mice were sacrificed, and their brains were isolated and fixed using 4% PFA in PBS and the implanted electrode locations were confirmed by either bright field imaging or DAPI staining and subsequent fluorescence imaging.

[8] = system: WT and KO mice
[9] = system: healthy human volunteers; conditions: i.v. infused for 1 hour; cited from earlier work
[10] = system: BK protein level in HEK293 cells; test: BK protein level in HEK293 cells overexpressing UBE3A (immunoblotting); format: cell-based, human; conditions: proteasome inhibitor 1 μM
Experimental: Induced neurons or cortical organoids were lysed in RIPA buffer supplemented with protease and phosphatase inhibitor cocktails. Protein samples were loaded onto 8-12% Bis-TRIS (NP0322BOX Invitrogen) and were transferred onto a PVDF membrane. After blocking with 5% milk in TBS-T buffer for 1 hour, PVDF membranes were incubated with primary antibodies overnight at 4° C., followed by 1-hour incubation with mouse or rabbit HRP antibody (1:2000, Invitrogen) at RT. Images were visualized by either chemiluminescence or NIR fluorescent detection using c600 Imaging System (Azure Biosystems Inc). HEK293 cells were grown in DMEM (Sigma) containing 10% FBS (Gibco) and 100 U/mL penicillin-streptomycin (Gibco) in a 5% CO2 incubator. Cells were transfected with a Lipofectamine PLUS (Invitrogen), subsequently were treated with 1 μM of MG132 (A.G Scientific) for another 24 h. Next, cells were lysed in PBS containing 1% SDS (Invitrogen), 1 mM PMSF (USB), 10 μg/ml aprotinin (Roche), and 1% (v/v) phosphatase inhibitor cocktail 2 and 3 (Sigma).

CC(C)(O)[C@H]1O[C@H]2CC[C@@]3(C)[C@@](O)(CC[C@H]4Cc5c([nH]c6ccccc56)[C@@]43C)C2=CC1=O [Paxilline, (2R,4bS,6aS,12bS,12cR,14aS)-4b-hydroxy-2-(1-hydroxy-1-methylethyl)-12b,12c-dimethyl-5,6,6a,7,12,12b,12c,13,14,14a-decahydro-2H-chromeno[5′,6′:6,7]indeno[1,2-b]indol-3(4bH)-one]
differences in fAHP amplitude and AP firing frequency between KO and WT neurons ([1]; 5 μM paxilline): normalized
excitability and fAHP in KO neurons ([1]; 5 μM paxilline, KO neurons): successfully restored excitability and fAHP to WT levels
fAHP in WT neurons ([1]; 20 μM paxilline, WT neurons): significantly lowered fAHP
fAHP in WT neurons ([1]; paxilline 5 μM, WT neurons): did not significantly reduce the fAHP
augmented neuronal excitability and fAHP changes in neurons of KO organoids ([2]; paxilline 10 μM, KO organoids): normalized
spontaneous burst firing in neurons of UBE3A KO organoids ([2]; paxilline 10 μM, perforated patch recordings, KO organoids): completely converted spontaneous burst firing into single AP firing
changes in neuronal excitability, fAHP, and network hyperactivity and synchronization in human cortical organoids from UBE3A knockout stem cells [2]: normalized
frequencies and amplitudes of calcium transients in the organoids [3]: decreased both the frequencies and the amplitudes
higher levels of network synchronization in KO and AS iPSC-derived organoids [3]: abolished
changes in excitability and higher fAHP in neurons from Ube3a m-/p+ mice [4]: normalized
reduction in the latency to myoclonic seizure in Ube3a m-/p+ mice [5]: normalized
seizure susceptibility in KO mice ([6]; paxilline high dose 3 mg/kg, KO mice): responded positively
seizure susceptibility in WT mice ([6]; paxilline high dose 3 mg/kg, WT mice): increased seizure susceptibility
seizure grade of Ube3a m-/p+ mice versus WT mice ([6]; paxilline pre-treatment 0.35 mg/kg i.p., picrotoxin 3 mg/kg i.p.): normalize
enhancement in the delta band (1-4 Hz) of LFP in Ube3a m-/p+ mice [7]: normalized
seizures caused by paxilline ([8]; 10 mg/kg paxilline, WT and KO mice): caused seizures
tremor in WT mice ([8]; paxilline 3 mg/kg compared to 0.35 mg/kg, WT mice): induced tremor
tremor in KO mice ([8]; paxilline 3 mg/kg, KO mice): not evident

CCCNc1nc(NCCC)nc(N(C)OC)n1 [GAL-021, 2-N-methoxy-2-N-methyl-4-N,6-N-dipropyl-1,3,5-triazine-2,4,6-triamine]
fAHP amplitude in KO hINs ([1]; GAL-021 50 μM or 100 μM, KO neurons): lowered
fAHP amplitude (and AP firing frequencies) in WT hINs ([1]; GAL-021 50 μM or 100 μM, WT neurons): did not change; also recorded: did not affect
spike frequency and fAHP in KO neurons compared with WT hINs ([1]; GAL-021 100 μM): Restoration
fAHP amplitude in KO hINs ([1]; GAL-021 200 μM, KO neurons): not significantly different from that of 100 μM
fAHP amplitude in KO hINs ([1]; GAL-021 200 μM, KO neurons, listed as GAL021): normalized fAHP
fAHP amplitude in WT hINs ([1]; GAL-021 200 μM, WT neurons): lowered
fAHP amplitude in WT hINs ([1]; GAL-021 200 μM, WT neurons, listed as GAL021): decreased fAHP
differences in fAHP amplitude and AP firing frequency between KO and WT neurons ([1]; GAL-021 50 or 100 μM): normalized
intrinsic excitability associated with augmented fAHP in UBE3A-deficient human neurons ([1]; GAL-021 application (50, 100, 200 μM tested)): returns to normal
changes in neuronal excitability, fAHP, and network hyperactivity and synchronization in human cortical organoids from UBE3A knockout stem cells [2]: normalized
tolerated i.v. infusion dosage [9]: 0.1 to 0.96 mg/kg/h

CC(C)C[C@@H](C=O)NC(=O)[C@H](CC(C)C)NC(=O)[C@H](CC(C)C)NC(=O)OCc1ccccc1 [MG312] (Cbz-Leu-Leu-Leu-aldehyde)
decrease in the BK protein level caused by UBE3A coexpression [10]: abolished

picrotoxin
seizure grade based on Racine's scale ([6]; picrotoxin 3 mg/kg i.p., Ube3a m-/p+ mice): 5 grade
seizure grade based on Racine's scale ([6]; picrotoxin 3 mg/kg i.p., WT mice): 1-2 grade
